The values that follow come from patent US20100221388A1, “INSTANTLY SOLUBLE COMPOSITIONS FOR CALCIUM FORTIFICATION OF BEVERAGES” (priority 2008, published 2010).

The nature of series [1]: visual test of transparency for calcium-oxalate crystal formation in hot black tea with calcium salt (100 mg elemental calcium). The settings on record: 240 ml hot black tea. In kind it is physicochemical. The method, then:
The data describes the effect of different levels of Mg and ascorbic acid (vitamin C) on appearance of visible calcium oxalate precipitation. The experiments were performed with various soluble calcium salts by adding different levels of ascorbic acid and Magnesium citrate and testing the impact on formation of calcium-oxalate crystals in tea preparations. […] The calcium salt mixture was added and stirred into a cup holding 240 ml of hot black tea made with boiling tap water. A visual test of transparency was made at 5, 10, 15 and 20 minutes after adding the mixture to the tea for determining any impact on solution clarity by formation of calcium-oxalate crystals. If visible crystals were formed within 10 minutes the result was determined “unacceptable”, if visible crystals were formed between 10-20 minutes then the results was marked “borderline”. If no crystals were visible within 20 minutes the result was marked “acceptable”. FIGS. 1-5 show the experimental results for various calcium salts. In each of the figures the X-axis marks the amount of Magnesium Citrate (mg) and the Y-axis marks the amount of ascorbic acid (mg). Each indicia of a circle, diamond or square signifies the experimental outcome of a separate experiment; circles indicate an acceptable outcome, diamonds indicate a borderline acceptable (less than optimal) outcome, and squares indicate an unacceptable outcome.

The test system of another series is Casein. Description: coagulation in casein-containing preparations with calcium salts (150 mg elemental calcium). It is filed as physicochemical. The following applies: room temperature.
Where [2] appears, read: casein-containing non-dairy creamer in water.

For `O=C1O[C@H]([C@@H](O)CO)C(O)=C1O` [ascorbic acid], the “minimal amount of ascorbic acid required to delay or prevent calcium oxalate formation” value in series [1] (in general across calcium salts (FIGS. 1-5)) is listed as 30 mg.

Take `CC(=O)[O-].CC(=O)[O-].[Ca+2]` [calcium acetate, Calcium diacetate]: in series [1] (ascorbic acid with or without Magnesium Citrate), the “need for additives to delay or prevent calcium oxalate formation, by calcium salt” value is “additional “competing salt” is required even with higher level of ascorbic acids”.

`O=P([O-])([O-])O.[K+].[K+]` [PP, Potassium phosphate dibasic anhydrous]: in the series on Casein (setting [2]), the “level sufficient to limit the coagulation to a minimal and acceptable change in appearance” value is 825 mg; the “lowest level required for preventing coagulation” value came out at 3000 mg. Moreover, in the series with Casein (half & half (mix of milk and cream)), the “lowest level that prevented coagulation” value is reported as 500 mg. For the same molecule, in the series with Casein (whole milk (about 3% fat)), the “amount sufficient to prevent coagulation” value is 10 mg.
